Results reported in patent publication US7524927B2, “Compositions, method and kits relating to deletion mutations of immunodeficiency virus gp120 hypervariable regions” (priority 2003, dated 2009).
Where two headings read alike, the source gives them in different places.

Experiments:
VCP Env pseudotype = conditions: U87/CD4/CXCR4 target cells
Protocol: (§1) FIG. 9B is a diagram depicting AMD3100 sensitivity for viral pseudotypes containing the indicated Envs as indicated, i.e., VCP, V3(6,6); V1/V2, and V3(6,6). Sensitivity to AMD3100 was assessed using U87/CD4/CXCR4 target cells. Two different Env clones comprising deletion of V3(6,6) in combination with deletion of V1/V2 are depicted.

[1] = system: V3(6,6); V1/V2 Env pseudotypes; conditions: U87/CD4/CXCR4 target cells; two Env clones
Protocol: as §1

V3(6,6) Env pseudotype = conditions: U87/CD4/CXCR4 target cells
Protocol: as §1

CXCR4 = biological target: T1, CXCR4 (Homo sapiens, UniProt P61073); format: binding
T1 construct: expressed in transfected cells
Protocol: Western blot binding assay. […] In this assay, the gp120 of interest is added to cells expressing the desired coreceptor either in the absence or presence of sCD4. After binding for 30 min, the cells are washed, lysed, and bound gp120 detected by western blot.

ΔV1/V2; ΔV3(6,6) virus = conditions: SupT1 cells
Text: (§2) This bicyclam specifically blocks CXCR4 function and its ability to serve as a receptor for X4 Envs by binding to two Asp residues at the base of the CXCR4 second and […] extracellular loops.

ΔV3(6,6) virus = conditions: SupT1 cells
Text: (§3) Each virus was innoculated onto SupT1 cells in the presence of varying concentrations of AMD3100 (0, 10, 100, 1,000, and 10,000 nm as indicated).
as §2

[2] = system: HIV-2/VCP virus (wildtype VCP); experiment: microbe, parasite or virus in culture
Text: as §3, §2

T1 sequence (P61073 whole entry): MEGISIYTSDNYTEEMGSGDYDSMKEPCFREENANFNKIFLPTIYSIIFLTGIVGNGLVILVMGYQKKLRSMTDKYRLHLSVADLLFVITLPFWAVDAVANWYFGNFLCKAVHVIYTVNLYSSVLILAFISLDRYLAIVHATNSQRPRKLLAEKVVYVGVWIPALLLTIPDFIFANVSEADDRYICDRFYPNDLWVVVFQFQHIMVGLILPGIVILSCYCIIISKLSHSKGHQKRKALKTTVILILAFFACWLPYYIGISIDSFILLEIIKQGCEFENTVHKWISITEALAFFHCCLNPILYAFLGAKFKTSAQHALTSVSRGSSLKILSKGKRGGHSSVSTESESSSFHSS

Compound | AMD3100 sensitivity of pseudotype (VCP Env pseudotype) | AMD3100 sensitivity of pseudotype [1] | AMD3100 sensitivity of pseudotype (V3(6,6) Env pseudotype) | Inhibition of VCP gp120 binding to CXCR4-expressing cells (CXCR4) | AMD3100 concentration at which virus could not be blocked (ΔV1/V2; ΔV3(6,6) virus) | Resistance of virus to AMD3100 (ΔV3(6,6) virus; adapted (p16) virus, up to 10,000 nm AMD3100) | AMD3100 concentration at which virus could not be blocked (ΔV3(6,6) virus; ΔV3(6,6) virus) | Sensitivity of virus to AMD3100 ([2]; 0, 10, 100, 1,000, and 10,000 nm AMD3100, SupT1 cells) | IC50 ([2]; Human immunodeficiency virus 2, SUP-T1, read-out: IC50 for inhibition of infection of SupT1 cells) | Inhibition of VCP gp120 binding to CXCR4-expressing cells (CXCR4; VCP gp120)
c1cc(CN2CCCNCCNCCCNCC2)ccc1CN1CCCNCCNCCCNCC1 [AMD3100] | sensitivity | complete resistance | complete resistance | inhibitable | greater than 10,000 nM | completely resistant | greater than 10,000 nM | sensitive | ~50 nM | 
SDF-1: natural chemokine ligand of CXCR4 [reference compound] |  |  |  |  |  |  |  |  |  | inhibitable
